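Each compound was tested at five concentrations against cells in 96-well plates for 48 hours. The concentration for 50% growth inhibition is given as GI50. TGI marks complete inhibition of growth.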
What was measured:
Assay in all cases: growth of human tumour cells (NCI), 48 h
[1] = test system: 786-0 renal
[2] = test system: A498 renal
[3] = test system: A549 NSCLC
[4] = test system: BT-549 breast
[5] = test system: COLO 205 colon
[6] = test system: HOP-92 NSCLC
[7] = test system: K-562 leukemia
[8] = test system: KM12 colon
[9] = test system: MCF7 breast
[10] = test system: MDA-MB-231 breast
[11] = test system: NCI-H23 lung
[12] = test system: PC-3 prostate
[13] = test system: SK-OV-3 ovarian
[14] = test system: SN12C renal
[15] = test system: SR leukemia
[16] = test system: T-47D breast
[17] = test system: TK-10 renal
[18] = test system: UACC-257 melanoma
[19] = test system: NCI-H226 lung

SMILES	TGI [1]	TGI [2]	TGI [3]	TGI [4]	TGI [5]	TGI [6]	TGI [7]	TGI [8]	TGI [9]	TGI [10]	TGI [11]	TGI [12]	TGI [13]	TGI [14]	TGI [15]	TGI [16]	TGI [17]	TGI [18]	TGI [19]	GI50 [14]
COc1ccc(C2(O)c3ccccc3C(=O)N(C)C2(O)c2ccc(OC)cc2)cc1 (configuration not stated)	> 100 µM	> 100 µM	> 100 µM	> 100 µM	60.1 µM	> 100 µM	> 100 µM	89.4 µM	> 100 µM	> 100 µM	> 100 µM	> 100 µM	> 100 µM	> 100 µM	> 100 µM	> 100 µM	> 100 µM	> 100 µM		
CC(C)(C)OC(=O)N(CCNS(=O)(=O)c1cccc2cnccc12)CCC(=O)ON1C(=O)CCC1=O	> 100 µM		> 100 µM	> 100 µM	> 100 µM	> 100 µM	> 100 µM		> 100 µM	> 100 µM	> 100 µM	> 100 µM	> 100 µM	> 100 µM	> 100 µM	> 100 µM	> 100 µM	> 100 µM	> 100 µM	
COc1ccc(C(=O)/C=C/c2cccnc2)cc1OC	14.1 µM	27.8 µM	27.7 µM	19.3 µM	22.9 µM	26.7 µM	43.8 µM		13 µM	23.8 µM	22.9 µM	28 µM	28.6 µM	18.3 µM	6.02 µM	22 µM	29.1 µM	29 µM	24.8 µM	
CN(C)CCn1c(=O)c2ccc3c4c(nn3CCN(C)C)c3cc(O)ccc3n(c1=O)c24	0.424 µM	0.83 µM	1.54 µM	3.66 µM	0.609 µM		1.56 µM	3.5 µM	0.392 µM	0.727 µM	0.701 µM	2.98 µM	0.74 µM	0.842 µM	0.0505 µM	> 39.2 µM	0.837 µM	1.16 µM	1.44 µM	
Cn1c(=O)c2c(ncn2CCCCOc2ccc3c(c2)[n+]([O-])nc(N)[n+]3[O-])n(C)c1=O	> 100 µM		> 100 µM	70.6 µM	43.2 µM	33.4 µM	> 100 µM	> 100 µM	> 100 µM	> 100 µM	> 100 µM	> 100 µM	> 100 µM	> 100 µM	> 100 µM	12.1 µM	> 100 µM	> 100 µM	79.6 µM	
NC(CCC(=O)O)(CCC(=O)O)CCC(=O)O	> 100 µM		> 100 µM	> 100 µM	> 100 µM	> 100 µM	> 100 µM	> 100 µM	> 100 µM	> 100 µM	> 100 µM	> 100 µM	> 100 µM	> 100 µM	> 100 µM	> 100 µM	> 100 µM	> 100 µM	> 100 µM	
CCOc1ncn(-c2ccc(NC(=S)NC34CC5CC(CC(C5)C3)C4)cc2)n1	> 100 µM		> 100 µM	> 100 µM	> 100 µM	60.6 µM	> 100 µM	> 100 µM	> 100 µM	> 100 µM	> 100 µM	> 100 µM	> 100 µM	> 100 µM	> 100 µM	> 100 µM	> 100 µM	> 100 µM		
N#Cc1[nH]c(=O)n(-c2cccc3ccccc23)c1N	> 10 µM	> 10 µM	> 10 µM	> 10 µM	> 10 µM		> 10 µM	> 10 µM	> 10 µM	> 10 µM	> 10 µM	> 10 µM	> 10 µM	> 10 µM	> 10 µM	> 10 µM	> 10 µM	> 10 µM		
CC12c3c4cc(Br)cc3Oc3cc(Br)cc(c31)Oc1cc(Br)cc(c12)O4	44.4 µM		> 100 µM	52.7 µM	> 100 µM		> 100 µM	> 100 µM	> 100 µM	59.3 µM	> 100 µM	55.3 µM	> 100 µM	83.4 µM	> 100 µM	> 100 µM	> 100 µM	> 100 µM	41.3 µM	
O=C1CCCCC/C1=C\c1ccc(Cl)cc1	> 100 µM	> 100 µM	> 100 µM	> 100 µM	40.8 µM	98 µM		51.4 µM		> 100 µM	> 100 µM	48.4 µM	> 100 µM	> 100 µM	> 100 µM	> 100 µM	> 100 µM	> 100 µM	> 100 µM	
O=C(CNC(=O)OCc1ccccc1)NCCCCC(NC(=O)OCc1ccccc1)C(=O)NC(CCCCNC(=O)CNC(=O)OCc1ccccc1)C(=O)OCc1ccccc1 (configuration not stated)	> 62.5 µM	> 62.5 µM	> 62.5 µM	> 62.5 µM			> 62.5 µM		> 62.5 µM	> 62.5 µM	> 62.5 µM	> 62.5 µM		> 62.5 µM	> 62.5 µM	> 62.5 µM	> 62.5 µM	> 62.5 µM	> 62.5 µM	
CCOC(=O)Nc1nn(C)c(=NCc2ccccc2)s1	> 100 µM	> 100 µM	> 100 µM	> 100 µM	> 100 µM	> 100 µM	> 100 µM	> 100 µM	> 100 µM	> 100 µM		> 100 µM	> 100 µM	> 100 µM	> 100 µM	> 100 µM	> 100 µM	> 100 µM		
CC(=O)O[C@H]1CCn2c3c(c(C)c21)C(=O)C(N1CC1)=C(C)C3=O	> 10 µM		7.83 µM	> 10 µM	> 10 µM		> 10 µM	> 10 µM	> 10 µM	> 10 µM	> 10 µM	> 10 µM	> 10 µM	> 10 µM	> 10 µM	> 10 µM	> 10 µM	> 10 µM	> 10 µM	
O=S(=O)(O)c1ccc2c(N=Nc3ccc(F)cc3)c(O)c(S(=O)(=O)O)cc2c1	> 100 µM	> 100 µM	> 100 µM	> 100 µM	> 100 µM	> 100 µM	> 100 µM	> 100 µM		> 100 µM	> 100 µM	> 100 µM	> 100 µM	> 100 µM	> 100 µM	> 100 µM	> 100 µM	> 100 µM		
CCOc1cc2c(cc1O)/C(=N/NS(=O)(=O)c1ccc(C)cc1)C[C@@H]1[C@@H]2CC[C@]2(C)[C@@H](O)CC[C@@H]12	> 100 µM	> 100 µM	> 100 µM	> 100 µM	17.4 µM	> 100 µM	> 100 µM	> 100 µM	> 100 µM	> 100 µM	> 100 µM	> 100 µM	> 100 µM	> 100 µM		> 100 µM	> 100 µM	> 100 µM	68.7 µM	12.1 µM
COC(=O)C1(Cc2ccc3c(c2)CCC3)Cc2ccc3c(c2C1)CCC3 (configuration not stated)	97.6 µM	72.2 µM	> 100 µM	56.9 µM	39.2 µM	98.1 µM	> 100 µM	54 µM	31.4 µM	45 µM	4.63 µM	55.9 µM	> 100 µM	56.3 µM		27.1 µM	> 100 µM	30.3 µM	66 µM	
NC(CCCCNC(=O)CNC(=O)OCc1ccccc1)C(=O)NC(CCCCNC(=O)CNC(=O)OCc1ccccc1)C(=O)NC(CCCCNC(=O)CNC(=O)OCc1ccccc1)C(=O)NC(CCCCNC(=O)CNC(=O)OCc1ccccc1)C(=O)NC(CCCCNC(=O)CNC(=O)OCc1ccccc1)C(=O)NC(CCCCNC(=O)CNC(=O)OCc1ccccc1)C(=O)O (configuration not stated)	> 75 µM	> 75 µM	> 75 µM	> 75 µM			> 75 µM		> 75 µM	> 75 µM	> 75 µM	> 75 µM		> 75 µM	> 75 µM	> 75 µM	> 75 µM	> 75 µM	> 75 µM	
CC(C)CC(NC(=O)C(CCI)Cc1ccccc1)C(=O)Nc1ccccc1 (configuration not stated)	> 100 µM	> 100 µM	> 100 µM	66.5 µM	> 100 µM	> 100 µM	> 100 µM	> 100 µM	> 100 µM	> 100 µM	> 100 µM	> 100 µM	> 100 µM	> 100 µM	> 100 µM		> 100 µM	> 100 µM	> 100 µM	
O=C1NC(=O)C(COCc2ccccc2)C2=C1SCCC2 (configuration not stated)	> 100 µM	> 100 µM	> 100 µM	> 100 µM	> 100 µM	> 100 µM	> 100 µM	> 100 µM	> 100 µM	> 100 µM	> 100 µM	> 100 µM			> 100 µM			> 100 µM	> 100 µM	
O=C1/C(=C/c2c(Cl)[nH]c3ccccc23)c2ccccc2N1c1ccccc1	25.4 µM	40.8 µM	> 100 µM	21.2 µM	5.34 µM	31.8 µM	> 100 µM	19.7 µM	30.9 µM	29.6 µM	19.3 µM	19.4 µM	14.2 µM	20.3 µM	19.6 µM	16 µM	39.9 µM	23.8 µM		
COC(=O)[C@@]12C(=O)C(C)C(=O)[C@]1(C)C(C)=C[C@H]1[C@]3(C=O)CC[C@H](OC(C)=O)C(C)(C)[C@H]3CC[C@@]12C (some centres not stated)	> 100 µM	> 100 µM	> 100 µM	> 100 µM	> 100 µM	> 100 µM	> 100 µM	> 100 µM		> 100 µM	> 100 µM	> 100 µM	> 100 µM		> 100 µM	> 100 µM	> 100 µM	> 100 µM	> 100 µM	
O=C(CCCN1CCC2(CC1)CC(=O)N(N1CCCCCC1)C2=O)c1ccc(F)cc1	38.1 µM	> 100 µM	> 100 µM	> 100 µM	> 100 µM		> 100 µM		> 100 µM	> 100 µM	> 100 µM	> 100 µM	> 100 µM	> 100 µM	> 100 µM	> 100 µM	> 100 µM	> 100 µM		
CN(CCCN(C)CCc1ccc(Cl)c(Cl)c1)CCCN1CCCC1	2.76 µM	3.37 µM	11.2 µM	19 µM	6.84 µM	11.5 µM	1.3 µM	7.99 µM	3.69 µM	3.61 µM	14.3 µM	15.1 µM	23.1 µM	11.8 µM		5.94 µM	5.52 µM	3.46 µM	5.68 µM	
O=c1oc2c(ccc3ccccc32)cc1C1=CSC2=NCCN12	> 100 µM		> 100 µM	71.1 µM	> 100 µM	84.3 µM	> 100 µM	> 100 µM	67.8 µM	> 100 µM	> 100 µM	> 100 µM	> 100 µM	> 100 µM	> 100 µM	> 100 µM	> 100 µM	> 100 µM		
CC(C)/C(Cl)=N\OC(=O)Nc1ccc(F)cc1F	13.3 µM	31.1 µM	34.6 µM	25.9 µM	3.52 µM	3.61 µM	> 100 µM	35.1 µM	13.4 µM	6.34 µM	30.1 µM	31.6 µM	30.8 µM	21.1 µM		47.3 µM	9.55 µM	27.7 µM	29.8 µM	
Oc1ccc(/C=C/c2ccc3cccc(O)c3n2)cc1O	50.9 µM	30 µM	27.8 µM	4.03 µM	29.6 µM	> 100 µM	> 100 µM	33 µM	93.7 µM	62.8 µM		67.6 µM	> 100 µM	12.8 µM	18.6 µM	6.52 µM	90.8 µM	47.3 µM		

Reference: PubChem BioAssay (NCI)
